Source: US20240383875A1, “Benzimidazole Pyridine Derivatives” (Hoffmann-La Roche Inc., priority 2022, published 2024)

How the values were obtained:
Assay type in all cases: biochemical
[1] = molecular target: SIK1 (Homo sapiens, UniProt P57059); assay: Enzymatic activity assay SIK1, RapidFire mass spectrometry (phosphorylation of CHK-peptide); details: RapidFire MS, inhibition of SIK1; read-out: SIK1 RF IC50
Procedure: (§1) Assay description SIK1-3, RapidFire:
(§2) In the presence of SIK2 (resp. SIK1 or SIK3) and ATP the CHK-peptide ([…] with C-terminal arginine amide modification) were phosphorylated at one of the four feasible serine's. Only one phosphorylation is observed under the assay conditions. 60 nl of each compound dilution series (12 point; dilution factor 3, generally 30 μM to 170 pM) in DMSO were transferred by acoustic dispensing to the assay plate and 30 min pre-incubated (ambient temperature) after the addition of 5 μl SIK1 (5 nM) resp. 5 μl SIK2 (0.5 nM) or 7 μl SIK3 (1.5 nM) in assay-buffer (12.5 mM HEPES (pH 7.0), 10 mM magnesium acetate, 0.005% BSA). 10 μM CHK-peptide solution and 5 μl 100 μM ATP for SIK1 & SIK2 resp. 3 μl for SIK3 in assay-buffer were added and incubated ambient for 45 min. 40 μl 0.125% formic acid in water were added to quench the reaction. RapidFire (RF) Mass Spectrometry was utilized for data generation as described below. The multiple charged species (3-5 charges) for the phosphorylated and non-phosphorylated form measured by MRM (Multiple Reaction Monitoring; API5000 or 6500+) or EIC (Extracted Ion Current; QToF) were summed up and the ratio calculated (sum phosphorylated species/sum all species) for data evaluation. Normalization was performed by Genedata software based on the non-inhibition control DMSO and the commercially available SIK inhibitor @ 1 μM YKL-05-099 (CAS number 1936529-65-5). The results of the assay are expressed in half-maximal inhibitory concentrations (IC50s) and are summarized below in Table 1.
(§3) Samples were aspirated by vacuum for max. 600 ms and loaded to C4-cartridge (Agilent; #G9203A) for 3000 ms@1.5 ml/min with 0.1% formic acid in water. Afterwards samples were transferred to the APT5000 (APT6500+) or QToF mass spectrometer for 4000 ms@1.25 ml/min with 90% acetonitrile; 10% water; 0.007% TFA; 0.093 formic acid. The cartridge was reconditioned for additional 500 ms with 0.1% formic acid in water
(§4) All MS analyses using the following MS-setup in MRM mode: Electrospray positive; Ion Spray Voltage: 4000V; Temperature: 550° C.; Collision Gas: 5; Curtain Gas: 15; Gas1: 40; Gas 2: 42; EP: 10
(§5) MS-Setup Agilent QToF 6545
(§6) All MS analyses using the following MS-setup in Mode MS: Dual AJS Electrospray positive; VCap: 3000V; Drying & Sheath gas: 340° C.@81/min; Nebulizer: 60 psig; Nozzle Voltage: 2000V; Fragmentor: 130V; Skimmer: 35V; Oct1 RF Vpp: 700V; Ref masses on@5spectra/s

[2] = molecular target: SIK3 (Homo sapiens, UniProt Q9Y2K2); assay: Enzymatic activity assay SIK3, RapidFire mass spectrometry (phosphorylation of CHK-peptide); details: RapidFire MS, inhibition of SIK3; read-out: SIK3 RF IC50
Procedure: as §1, §2, §3, §4, §5, §6

[3] = molecular target: SIK2 (Homo sapiens, UniProt Q9H0K1); assay: Enzymatic activity assay SIK2, RapidFire mass spectrometry (phosphorylation of CHK-peptide); details: RapidFire MS, inhibition of SIK2; read-out: SIK2 RF IC50
Procedure: as §1
as §2, with “Only one phosphorylation is observed under the assay conditions. 60 nl of each compound dilution series (12 point; dilution factor 3, generally 30 μM to 170 pM) in DMSO were transferred by acoustic dispensing to the assay plate and 30 min pre-incubated (ambient temperature) after the addition of 5 μl SIK1 (5 nM) resp.” left out, “1936529-65-5).” for “1936529-65-5). The results of the assay are expressed in half-maximal inhibitory concentrations (IC50s) and are summarized below in Table 1.”
as §3, §4, §5, §6

SIK1, sequence (P57059 whole entry): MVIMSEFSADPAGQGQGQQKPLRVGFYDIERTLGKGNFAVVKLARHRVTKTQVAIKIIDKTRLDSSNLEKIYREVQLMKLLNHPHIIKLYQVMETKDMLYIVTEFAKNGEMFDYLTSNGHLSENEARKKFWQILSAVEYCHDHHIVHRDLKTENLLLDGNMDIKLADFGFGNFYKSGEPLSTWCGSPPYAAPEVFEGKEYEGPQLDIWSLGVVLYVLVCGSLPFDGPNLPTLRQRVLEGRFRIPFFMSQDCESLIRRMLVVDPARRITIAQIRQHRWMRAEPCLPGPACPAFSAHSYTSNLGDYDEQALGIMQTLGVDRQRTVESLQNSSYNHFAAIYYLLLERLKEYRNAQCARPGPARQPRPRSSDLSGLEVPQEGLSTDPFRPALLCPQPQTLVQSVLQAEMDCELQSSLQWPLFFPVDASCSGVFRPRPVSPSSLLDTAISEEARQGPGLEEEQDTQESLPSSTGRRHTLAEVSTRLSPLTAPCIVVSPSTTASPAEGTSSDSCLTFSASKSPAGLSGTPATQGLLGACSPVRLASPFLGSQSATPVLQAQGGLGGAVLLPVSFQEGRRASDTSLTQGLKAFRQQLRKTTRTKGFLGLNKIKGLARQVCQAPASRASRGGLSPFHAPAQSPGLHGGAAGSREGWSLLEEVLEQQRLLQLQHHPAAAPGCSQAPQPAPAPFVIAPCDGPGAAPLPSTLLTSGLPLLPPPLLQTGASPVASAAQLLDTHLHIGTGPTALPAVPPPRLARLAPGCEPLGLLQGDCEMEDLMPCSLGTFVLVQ
SIK3, sequence (Q9Y2K2 whole entry): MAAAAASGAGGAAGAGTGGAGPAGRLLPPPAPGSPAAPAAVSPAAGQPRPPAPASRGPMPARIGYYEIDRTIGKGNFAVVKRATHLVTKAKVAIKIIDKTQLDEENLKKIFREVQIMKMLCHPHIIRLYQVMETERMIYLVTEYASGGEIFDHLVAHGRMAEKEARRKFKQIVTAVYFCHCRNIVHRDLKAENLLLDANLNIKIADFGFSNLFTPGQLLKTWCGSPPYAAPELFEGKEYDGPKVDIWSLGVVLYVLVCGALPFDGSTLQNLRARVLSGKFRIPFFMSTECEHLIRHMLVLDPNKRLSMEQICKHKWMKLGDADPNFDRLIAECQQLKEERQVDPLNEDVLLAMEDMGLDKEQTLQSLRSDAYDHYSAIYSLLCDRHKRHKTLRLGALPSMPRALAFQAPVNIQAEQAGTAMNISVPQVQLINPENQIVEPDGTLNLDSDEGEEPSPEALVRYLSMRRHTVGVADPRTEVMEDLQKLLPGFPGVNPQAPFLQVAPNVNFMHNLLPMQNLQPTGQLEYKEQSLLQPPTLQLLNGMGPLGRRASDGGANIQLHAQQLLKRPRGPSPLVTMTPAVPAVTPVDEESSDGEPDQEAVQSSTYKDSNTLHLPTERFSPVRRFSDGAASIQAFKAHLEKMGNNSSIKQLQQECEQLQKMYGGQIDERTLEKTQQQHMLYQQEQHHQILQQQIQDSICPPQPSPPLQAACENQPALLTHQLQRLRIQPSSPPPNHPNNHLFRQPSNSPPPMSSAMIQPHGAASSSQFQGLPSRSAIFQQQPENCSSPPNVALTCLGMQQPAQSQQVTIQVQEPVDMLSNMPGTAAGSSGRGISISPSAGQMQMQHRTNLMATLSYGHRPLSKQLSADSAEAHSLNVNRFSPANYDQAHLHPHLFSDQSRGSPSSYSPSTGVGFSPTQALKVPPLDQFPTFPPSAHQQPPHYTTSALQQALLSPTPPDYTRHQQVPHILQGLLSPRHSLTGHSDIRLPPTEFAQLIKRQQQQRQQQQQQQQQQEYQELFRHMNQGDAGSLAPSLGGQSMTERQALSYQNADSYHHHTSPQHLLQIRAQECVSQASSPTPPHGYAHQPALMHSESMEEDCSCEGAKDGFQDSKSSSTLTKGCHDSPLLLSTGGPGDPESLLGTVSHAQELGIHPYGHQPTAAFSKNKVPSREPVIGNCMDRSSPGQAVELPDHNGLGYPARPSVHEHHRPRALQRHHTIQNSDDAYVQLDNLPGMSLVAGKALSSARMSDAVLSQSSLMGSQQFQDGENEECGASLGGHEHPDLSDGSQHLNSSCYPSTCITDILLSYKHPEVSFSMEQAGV
SIK2, sequence (Q9H0K1 whole entry): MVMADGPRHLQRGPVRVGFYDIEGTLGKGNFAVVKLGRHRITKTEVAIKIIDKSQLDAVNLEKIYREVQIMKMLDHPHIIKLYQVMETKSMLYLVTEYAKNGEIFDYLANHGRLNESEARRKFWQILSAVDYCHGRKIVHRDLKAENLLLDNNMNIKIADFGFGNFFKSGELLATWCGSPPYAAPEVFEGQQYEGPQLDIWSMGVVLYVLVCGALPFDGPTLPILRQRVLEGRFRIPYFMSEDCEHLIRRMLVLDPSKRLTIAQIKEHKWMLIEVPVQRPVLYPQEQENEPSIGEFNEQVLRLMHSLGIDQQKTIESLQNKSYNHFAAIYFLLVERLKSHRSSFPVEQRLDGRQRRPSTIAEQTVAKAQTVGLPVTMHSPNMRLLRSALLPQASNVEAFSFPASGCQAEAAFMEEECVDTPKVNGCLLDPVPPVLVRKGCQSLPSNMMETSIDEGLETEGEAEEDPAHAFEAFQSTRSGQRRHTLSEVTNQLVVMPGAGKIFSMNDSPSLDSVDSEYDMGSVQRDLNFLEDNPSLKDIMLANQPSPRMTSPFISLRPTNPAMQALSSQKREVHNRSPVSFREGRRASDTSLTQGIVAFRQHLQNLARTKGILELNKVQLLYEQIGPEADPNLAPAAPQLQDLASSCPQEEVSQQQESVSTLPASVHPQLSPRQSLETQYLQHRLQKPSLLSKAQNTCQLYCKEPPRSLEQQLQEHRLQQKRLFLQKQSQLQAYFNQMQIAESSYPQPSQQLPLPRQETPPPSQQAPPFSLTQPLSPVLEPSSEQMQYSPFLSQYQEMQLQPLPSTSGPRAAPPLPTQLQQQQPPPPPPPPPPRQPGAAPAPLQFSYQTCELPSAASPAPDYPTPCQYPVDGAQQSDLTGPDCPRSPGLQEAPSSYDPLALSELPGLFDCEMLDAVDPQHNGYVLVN

Structure (SMILES) | IC50 [1] | IC50 [2] | IC50 [3]
Cc1ccc(Nc2ccc3c(c2)ncn3-c2ccc(C(C)O)c(N3C[C@H](C#N)C[C@@H]3C)n2)nn1 (stereo partly drawn) [Example 242, (3R,5S)-1-[3-(1-hydroxyethyl)-6-[5-[(6-methylpyridazin-3-yl)amino]benzimidazol-1-yl]-2-pyridyl]-5-methyl-pyrrolidine-3-carbonitrile; formic acid] | 843 nM | 1.8 nM | 9.5 nM
Cc1cc(OC(F)F)nn1-c1nc(-n2cnc3cc(Nc4cccnn4)c(F)cc32)ccc1[C@H](C)O [Example 373, (1S)-1-[2-[3-(difluoromethoxy)-5-methyl-pyrazol-1-yl]-6-[6-fluoro-5-(pyridazin-3-ylamino)benzimidazol-1-yl]-3-pyridyl]ethanol] | 184 nM | 0.7 nM | 0.8 nM
Cc1ccc(Nc2ccc3c(c2)ncn3-c2ccc(C(C)O)c(-c3c(C#N)cnn3C)n2)nn1 (centres unmarked) [Example 76, 5-[3-(1-Hydroxyethyl)-6-[5-[(6-methylpyridazin-3-yl)amino]benzimidazol-1-yl]-2-pyridyl]-1-methyl-pyrazole-4-carbonitrile] | 7390 nM | 66.2 nM | 327 nM
Cc1cc(OC(F)F)nn1-c1nc(-n2cnc3cc(Nc4ccc(C(F)F)nn4)ccc32)ccc1C(C)O (centres unmarked) [Example 367, 1-[2-[3-(difluoromethoxy)-5-methylpyrazol-1-yl]-6-[5-[[6-(difluoromethyl)pyridazin-3-yl]amino]benzimidazol-1-yl]pyridin-3-yl]ethanol] | 88 nM | 0.8 nM | 1.5 nM
Cc1ccc(Nc2ccc3c(c2)ncn3-c2ccc([C@H](C)O)c(-n3nc(C#N)cc3C)n2)nn1 [Example 109, 5-Methyl-1-[6-[5-[(6-methylpyridazin-3-yl)amino]benzimidazol-1-yl]-3-[(1S)-1-hydroxyethyl]-2-pyridyl]pyrazole-3-carbonitrile] | 1800 nM | 18.6 nM | 
Cc1ccc(Nc2ccc3c(c2)ncn3-c2ccc(C(C)O)c(-n3nc(C#N)cc3C)n2)nn1 (centres unmarked) [Example 64, 1-[3-(1-Hydroxyethyl)-6-[5-[(6-methylpyridazin-3-yl)amino]benzimidazol-1-yl]-2-pyridyl]-5-methyl-pyrazole-3-carbonitrile] | 59 nM | 0.6 nM | 
Cc1ccc(Nc2ccc3c(c2)ncn3-c2ccc(C(C)O)c(-c3cccnc3-c3cn[nH]c3)n2)nn1 (centres unmarked) [Example 186, 1-[6-[5-[(6-Methylpyridazin-3-yl)amino]benzimidazol-1-yl]-2-[2-(1H-pyrazol-4-yl)-3-pyridyl]-3-pyridyl]ethanol] |  | 1060 nM | 1240 nM

The remaining molecules from weak to strong by IC50 [2], led by results:

IC50 [1] | IC50 [2] | IC50 [3] | Structure (SMILES)
692 nM | 2180 nM | 313 nM | COc1cc2ncn(-c3ccc(CO)c(-c4ccc(F)cc4OC)n3)c2cc1OC [Example 16, (6-(5,6-Dimethoxy-1H-benzo[d]imidazol-1-yl)-2-(4-fluoro-2-methoxyphenyl)pyridin-3-yl)methanol]
345 nM | 3.9 nM | 13 nM | Cc1ccc(Nc2ccc3c(c2)ncn3-c2ccc(C(C)O)c(N3CCN(CC(F)(F)F)C(=O)C3)n2)nn1 (centres unmarked) [Example 136, 4-[3-(1-Hydroxyethyl)-6-[5-[(6-methylpyridazin-3-yl)amino]benzimidazol-1-yl]-2-pyridyl]-1-(2,2,2-trifluoroethyl)piperazin-2-one]
1430 nM | 3.5 nM | 20.7 nM | COc1cc(C)n(-c2nc(-n3cnc4cc(Nc5ccc(C)nn5)ccc43)ccc2C(C)O)n1 (centres unmarked) [Example 214, 1-[2-(3-Methoxy-5-methyl-pyrazol-1-yl)-6-[5-[(6-methylpyridazin-3-yl)amino]benzimidazol-1-yl]-3-pyridyl]ethanol; formic acid]
26 nM | 0.2 nM |  | Cc1ccc(Nc2ccc3c(c2)ncn3-c2ccc([C@@H](C)O)c(-n3nc(C#N)cc3C)n2)nn1 [Example 110, 5-Methyl-1-[6-[5-[(6-methylpyridazin-3-yl)amino]benzimidazol-1-yl]-3-[(1R)-1-hydroxyethyl]-2-pyridyl]pyrazole-3-carbonitrile]
